Test results published in ChEMBL document CHEMBL3091435, “Protein-Ligand Interactions: Thermodynamic Effects Associated with Increasing the Length of an Alkyl Chain” (ACS Med Chem Lett, 2013).
Square brackets hold non-standard residues; d marks the D form. Peptide text beside a SMILES is read from it. pY = N[C@@H](Cc1ccc(OP(=O)(O)O)cc1)C(=O)O; Ahp(2) = CCCCC[C@H](N)C(=O)O; Nle = CCCC[C@H](N)C(=O)O; Nva = CCC[C@H](N)C(=O)O; Abu = CC[C@H](N)C(=O)O

The molecules below were run against Growth factor receptor-bound protein 2 (Homo sapiens) (UniProt P62993) (assay: Binding affinity to Grb2 SH2 domain (53 to 163) (unknown origin) expressed in Escherichia coli SG13009 by ITC analysis).
Growth factor receptor-bound protein 2 (Homo sapiens), sequence (P62993 whole entry, looked up, the tested form may be a part): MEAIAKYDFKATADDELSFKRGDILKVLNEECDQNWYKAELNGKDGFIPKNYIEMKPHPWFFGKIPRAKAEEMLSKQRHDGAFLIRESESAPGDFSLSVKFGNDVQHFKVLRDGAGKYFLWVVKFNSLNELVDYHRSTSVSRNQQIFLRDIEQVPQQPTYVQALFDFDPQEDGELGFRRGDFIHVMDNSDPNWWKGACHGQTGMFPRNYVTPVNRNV

SMILES	Ka [×10⁵ /M]
CC(=O)N[C@@H](Cc1ccc(OP(=O)(O)O)cc1)C(=O)N[C@@H](C)C(=O)N[C@@H](CC(N)=O)C(N)=O (Ac-[pY]-Ala-Asn-NH2)	2.2
CC[C@H](NC(=O)[C@H](Cc1ccc(OP(=O)(O)O)cc1)NC(C)=O)C(=O)N[C@@H](CC(N)=O)C(N)=O (Ac-[pY]-[Abu]-Asn-NH2)	8.6
CCC[C@H](NC(=O)[C@H](Cc1ccc(OP(=O)(O)O)cc1)NC(C)=O)C(=O)N[C@@H](CC(N)=O)C(N)=O (Ac-[pY]-[Nva]-Asn-NH2)	7.6
CCCCC[C@H](NC(=O)[C@H](Cc1ccc(OP(=O)(O)O)cc1)NC(C)=O)C(=O)N[C@@H](CC(N)=O)C(N)=O (Ac-[pY]-[Ahp(2)]-Asn-NH2)	7.8
CCCC[C@H](NC(=O)[C@H](Cc1ccc(OP(=O)(O)O)cc1)NC(C)=O)C(=O)N[C@@H](CC(N)=O)C(N)=O (Ac-[pY]-[Nle]-Asn-NH2)	8.4
C/C=C\[C@H](NC(=O)[C@H](Cc1ccc(OP(=O)(O)O)cc1)NC(C)=O)C(=O)N[C@@H](CC(N)=O)C(N)=O	6.1
